According to PubChem BioAssay AID179 (DTP/NCI, 2004):
Calls of active or inactive are those of the source.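 How the source made its calls: active means compounds giving half or more protection of infected cells from virus-caused growth loss, again on retest; inactive means the rest.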

Tested on: CEM cells HIV-1 protection, formazan growth assay
Assay: NCI AIDS Antiviral Assay
Details: for IC50: measured here: growth of uninfected CEM cells
Outline: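 Soluble formazan readout of cell growth; CEM cells ± HIV-1; 5 drug concs. ≥50% protection → retest; ≥50% again = moderately active; reproducible 100% = confirmed active.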

SMILES | EC50 | IC50 | outcome
Nc1nc(=O)n(C2CC(O)C(CO)O2)c2nc(-c3ccc(-c4ccccc4)cc3)cnc12 (stereo unspecified) | > 200 µM | > 200 µM | 
Nc1ccn(C2OC(COP(=O)(O)O)C(O)C2O)c(=O)n1 (stereo unspecified) (tested in a mixture with another compound) | > 200 µM | 40.7 µM | 
Nc1nc(Cl)cc(NCC2(CO)CC(OCc3ccccc3)C2)n1 (stereo unspecified) | > 200 µM | 6.03 µM | 
NC(Cc1cnc[nH]1)C(=O)NC(Cc1ccc(O)c(O)c1)C(=O)NCC(=O)N/C=C\c1c[nH]c2cc(Br)ccc12 (stereo unspecified) | > 81.3 µM | > 81.3 µM | 
CC(CCCC1SCC2NC(=O)NC21)C(=O)O (stereo unspecified) | > 977 µM | > 977 µM | 
O=C(O)CCCCCCCc1cccc(OCCOCCO)c1 | > 100 µM | > 100 µM | 
COC(=O)[C@@H]1C=CCN1S(=O)(=O)c1ccc(C)cc1 |  |  | inactive
CC[C@@H]1CN2CCc3c([nH]c4ccccc34)[C@@H]2C[C@@H]1/C(=C\OC)C(=O)OC | > 64.6 µM | > 64.6 µM | 
CC(=O)OC1CCC2(C)C(=CCC3C2CCC2(C)C3CC3N(c4ccccc4Cl)C32C#N)C1 (stereo unspecified) | > 21.4 µM | > 21.4 µM | 
CCOC(=O)N[C@@H]1C2CC(=O)C(O2)[C@@H]1OC (stereo partly specified) |  |  | inactive
Cc1ccc(Cl)c2c(=O)c3ccc([N+](=O)[O-])cc3sc12 | > 151 µM | > 151 µM | 
O=C(CNc1ccccc1[N+](=O)[O-])Nn1c(-c2ccccc2)nc2ccccc2c1=O | > 200 µM | 11.7 µM | 
NC(=O)NC1C(C(=O)O)N(Cc2ccccc2)C(=O)N1Cc1ccccc1 (stereo unspecified) | > 490 µM | > 490 µM | 
CC(C)(C)OC(=O)N1CCCC1C(=O)N1CCCC1C(=O)Oc1ccccc1 (stereo unspecified) | > 67.6 µM | > 67.6 µM | 
N[C@@H](CCC(=O)NCP(=O)(O)O)C(=O)O | > 200 µM | > 200 µM | 
CCOC(=O)c1sc2c(c1OC(=O)c1ccco1)c(=O)n(-c1ccccc1)c(=S)n2-c1ccccc1 | > 200 µM | 8.32 µM | 
Cc1cn([C@H]2C[C@@H]3[C@@H](COC(CCC[Se]c4ccccc4)N3O)O2)c(=O)[nH]c1=O (stereo partly specified) | 13.2 µM | 117 µM | 
CC1CCN(CCCCCNC(=O)C(c2ccccc2)C2CCCCC2)CC(C)(C)C1 (stereo unspecified) | > 100 µM | 41.7 µM | 
NC1CCC(N(CC(=O)O)CC(=O)O)C(N(CC(=O)O)CC(=O)O)C1 (stereo unspecified) | > 200 µM | 112 µM | 
CCCCCCCCCCCCCCCCCCOC(CO)COP(=O)(O)OCC1OC(n2cc(C)c(=O)[nH]c2=O)CC1F (stereo unspecified) | 0.00155 µM | 2 µM | 
COc1ccc(Nc2nc(C#N)c(N)s2)cc1 | > 490 µM | 117 µM | 

SMILES | EC50 | IC50 | outcome
O=C1OC[C@H]2[C@@H]1[C@H]1O[C@@H]2C2=C(CCC2)C1=O | > 200 µM | > 200 µM | 
CCCCCCCCC1=C(OC)C(=O)c2c(C)ccnc2C1=O |  |  | inactive
O=P(O)(O)C=C=C1CCCCC1 | > 200 µM | > 200 µM | 
CC(=O)Nc1ccc(S(=O)(=O)/N=C(/C2CCCC2)N2CCCC2)cc1 | > 200 µM | > 200 µM | 
COC(=O)C(Cc1ccccc1)NS(=O)(=O)c1ccc(-c2c3nc(c(-c4ccc(S(=O)(=O)NC(Cc5ccccc5)C(=O)OC)cc4)c4ccc([nH]4)c(-c4ccc(S(=O)(=O)NC(Cc5ccccc5)C(=O)OC)cc4)c4nc(c(-c5ccc(S(=O)(=O)NC(Cc6ccccc6)C(=O)OC)cc5)c5ccc2[nH]5)C=C4)C=C3)cc1 (stereo unspecified) | > 126 µM | > 126 µM | 
O=C(/C=C/c1ccc(OCCCOc2ccc(/C=C/C(=O)c3ccc(Cl)cc3)cc2)cc1)c1ccc(Cl)cc1 | > 12.9 µM | > 12.9 µM | 
CCOC(=O)C(C)(NC(=O)c1ccc(NCc2ccc3nc(NC(=O)c4ccccc4)nc(NC(=O)c4ccccc4)c3c2)cc1)C(=O)OCC | > 50.1 µM | 32.4 µM | 
C[Si](C)(C)/C(I)=C/CO |  |  | inactive
O=C1CCCCC1=O |  |  | inactive
C[C@@H](c1ccccc1)N(CC#N)[C@H]1CCC[C@]1(O)/C=C/c1ccc2c(c1)OCO2 | > 50.1 µM | > 50.1 µM | 
C=CCCCCC1CCC2CCC(CCCCC=C)N12 (stereo unspecified) | > 95.5 µM | 79.4 µM | 
COC(=O)C1=C(O)C(O)=C(C(=O)OC)C1 | 407 µM | 955 µM | 
[Cl][Cu][Cl] | > 200 µM | 182 µM | 
O=C1Nc2cnc(Cl)nc2Nc2ccc(Cl)cc21 | 123 µM | > 200 µM | 
C/C(=N\Nc1ccc([N+](=O)[O-])cc1)C(=O)N(C)Nc1ccccc1 |  |  | inactive
CC(=O)Nc1ccc(/C=C(\NC(=O)c2ccccc2)c2nc3ccc4c(c3[nH]2)C(=O)c2ccccc2C4=O)cc1 |  |  | inactive
NNc1c(Cl)c(=O)n(-c2ccccc2)[nH]c1=O | > 200 µM | > 200 µM | 
Cc1cc(C)nc(NS(=O)(=O)c2ccc(NNc3c4ccccc4nc4c(C(=O)Nc5ccc(S(=O)(=O)Nc6ncccn6)cc5)cccc34)cc2)n1 | > 200 µM | 29.5 µM | 
CC(=O)OCCCOCn1cc(C)c(=O)[nH]c1=O | > 200 µM | > 200 µM | 
COc1cccc(/C=C2\SC(=S)N(/C=C(/C#N)C(N)=O)C2=O)c1O | 100 µM | 112 µM | 
CN/N=C(\C)C(CN(C)C)C(c1ccccc1)c1c(O)c2ccccc2oc1=O (stereo unspecified) | > 135 µM | 102 µM | 

SMILES | EC50 | IC50 | outcome
COc1cc2c(cc1OC)C1c3ccccc3CCN1CC2 (stereo unspecified) | > 200 µM | 93.3 µM | 
C#C[C@]1(O)CC[C@H]2[C@@H]3CCC4=C/C(=N/OCCN(C)C)CC[C@]4(C)[C@H]3CC[C@@]21C | > 100 µM | 4.79 µM | 
COc1ccc2c(c1)CC1c3c(cc4c(c3-2)OCO4)CCN1C (stereo unspecified) | > 589 µM | 3.31 µM | 
COc1cccc(Nc2nc(N)nc(N)c2N)c1 | > 200 µM | 26.3 µM | 
Cc1c(CCOC=O)c(=O)[nH]c2nncn12 | 14.1 µM | > 200 µM | 
O=C(O)c1nn(-c2ccccc2)c2c1CSc1ccccc1-2 | > 200 µM | 158 µM | 
Cc1ccc(S(=O)(=O)NNC(=O)c2sc(-c3nc(C)c(C(=O)NNS(=O)(=O)c4ccc(C)cc4)s3)nc2C)cc1 | > 81.3 µM | > 81.3 µM | 
Fc1cccc(Cl)c1C1SCc2nc3cc4ccccc4cc3n21 (stereo unspecified) | > 200 µM | 158 µM | 
C=CCCCC12CCCc3cccc(c31)NC2=O (stereo unspecified) | > 151 µM | 63.1 µM | 
O=P1(NCCCl)OCCCN1CCCl (stereo unspecified) | > 955 µM | > 955 µM | 
COC(=O)N/N=C(/Cc1occc(=O)c1O)C(=O)Nc1ccc([N+](=O)[O-])cc1[N+](=O)[O-] | > 575 µM | > 575 µM | 
CCn1c(=O)nc2n(-c3ccccc3)c3ccccc3nc-2c1=O |  |  | inactive
COc1ccc(S(=O)(=O)N/N=C/CN2C(=O)c3ccccc3C2=O)cc1OC | > 64.6 µM | > 64.6 µM | 
Cc1[nH]c(=O)nc2[nH][nH]c(=O)c12 |  |  | inactive
c1ccc(C2(c3ccccc3)S/C(=C3/SC(c4ccccc4)(c4ccccc4)c4ccccc43)c3ccccc32)cc1 |  |  | inactive
CCOC(=O)c1c[nH]c2ccc3c(c2c1=O)S(=O)(=O)CC3 (tested in a mixture with another compound) |  |  | inactive
O=C1c2scc(-c3ccc(F)cc3)c2-n2cccc21 | > 200 µM | 30.2 µM | 
Brc1cccc[n+]1Cc1cccc(C[n+]2ccccc2Br)c1 | 0.0631 µM | 141 µM | 
CC12C=CC(C)(C3C(=O)C4C(C(=O)C31)C1(C)C=CC4(C)S1=O)S2=O (stereo unspecified) | 21.9 µM | 60.3 µM | 
